Values quoted from earlier work in patent publication US20090234270A1, “Therapy and device for treatment of nail infections” (Ondine International, Ltd., priority 2008, published 2009).

Columns and labels:
[1] = in vivo, po

SMILES | side effects [1] | also measured
OC(Cn1cncn1)(Cn1cncn1)c1ccc(F)cc1F [Fluconazole] | severe side effects | 
CCC(C)n1ncn(-c2ccc(N3CCN(c4ccc(OCC5COC(Cn6cncn6)(c6ccc(Cl)cc6Cl)O5)cc4)CC3)cc2)c1=O (stereo not drawn) [itraconazole] | somewhat severe | 
CN(C/C=C/C#CC(C)(C)C)Cc1cccc2ccccc12 [Lamisil, terbinafine] |  | nail clearing, share of patients (onychomycosis; oral, once a day for 90 days, clearing for one year): 70-80%
COC1=CC(=O)C[C@@H](C)[C@]12Oc1c(Cl)c(OC)cc(OC)c1C2=O [Griseofulvin] | undesired side effects | efficacy in onychomycosis (onychomycosis; oral medicine): largely ineffectual
CC12CCC(CC1=O)C2(C)C (stereo not drawn) [camphor] |  | solubility in water: poorly soluble in water
